# Laboratory results from paper PMC8316502 (Nature Communications, 2021).
# Like-named read-outs stand apart in the source and are kept apart here.
# Key:
# Shimia marina (DSM26895) = assay: Final growth yield on sole N or P source, DSM 26895; type: cell-based
# Experimental: (§1) All strains used in this work were axenic. Pseudomonas strains were maintained on Luria Bertani (LB) agar (1.5% w/v) medium at 30 °C. Stappia stellulata and the Roseobacter strains were maintained on Marine Broth agar (1.5% w/v) medium at 30 °C. […] For all growth and proteomics experiments cultures were grown in an adapted minimal A medium[44] using Na-Succinate (20 mM) as the sole carbon source and, where applicable, 10 mM NH4Cl was added as the sole N source. 2AEP and KH2PO4 were added to a final concentration of 100 µM or 1.5 mM as specified in the text and figure legends. Pseudomonas strains were pre-cultured in minimal medium A containing 100 µM Pi and 1.5 mM NH4Cl to ensure adequate growth while minimising the potential for carryover of residual nutrients into experimental cultures. Culture experiments were performed using a FLUOStar Omega 96-well plate reader using Sarstedt 96-well plates incubated at 30°C, shaking at 200 rpm. […] For all other growth and proteomics experiments these marine bacteria were grown in Sea Salts media, with Pi buffer replaced by HEPES buffer. The method used for quantifying extracellular Pi is detailed in the Supplementary Materials.
# (§2) Table S1 Final growth yields (mean OD540 ± standard deviation) of Stappia stellulata (DSM 5886), Alliiroseovarius crassostreae (DSM 16950), Alliiroseovarius sediminilitoris (DSM 29439), Thalassobius aestuarii (DSM 15283), and Shimia marina (DSM26895) on 2AEP as sole N or P source with corresponding negative and positive controls. All conditions were performed in triplicate.
# [1] = tested on: Alliiroseovarius crassostreae (DSM 16950); assay: Final growth yield on sole N or P source, DSM 16950; type: cell-based
# Experimental: as §1, §2
# [2] = tested on: Alliiroseovarius sediminilitoris (DSM 29439); assay: Final growth yield on sole N or P source, DSM 29439; type: cell-based
# Experimental: as §1, §2
# S. stellulata AepX = assay: Microscale thermophoresis ligand binding of recombinant S. stellulata AepX; set-up: species or system Stappia stellulata; conditions: for Kd: read-out: Kd (μM) AepX Ss
# Experimental: Finally, we determined the substrate specificity of recombinant S. stellulata AepX towards 2AEP and other (alkyl)phosphonates using microscale thermophoresis[53],[54].
# Recombinant AepX was over-produced and purified to homogeneity using methods described in[53]. Binding affinity was determined by microscale thermophoresis using a Monolith NT.115 instrument (NanoTemper Technologies GmbT, Germany) following the protocols described in[53],[54]. A detailed protocol is outlined in the Supplementary Materials. […]
# pET21a::aepXSs was sequence verified by automated DNA sequencing (Eurofins, Germany) and introduced to E. coli BL21(DE3) for over-production of recombinant AepX with a C-terminal […]
# E. coli BL21(DE3) harbouring pET21a::aepXSs was grown in LB broth with 100 µg mL-1 ampicillin in a culture volume of 1 L contained within a 2 L baffled flask. […]
# The binding affinity of AepX for phosphonate ligands was determined using Microscale Thermophoresis (MST) with a Monolith NT.115 instrument (NanoTemper Technologies, Germany).
# AepX (100 nM) was labelled with 2nd Generation RED-tris-NTA dye (Nanotemper Technologies, Germany) in 20 mM HEPES pH 7.5 with 200 mM NaCl and 0.005% (v/v) Tween-20 (MST buffer) according to the manufacturer’s instructions. […] 4 µL of each protein-ligand mixture was loaded into Monolith NT.115 Premium Capillaries (Nanotemper Technologies, Germany) and thermophoresis was measured at 22 °C for 22 s with 60 % LED power and High MST power. Data from at least two independent titrations were combined and analysed using the MO.Affinity Analysis software version 2.3 (Nanotemper Technologies, Germany), using the early thermophoresis data at 1 – 2.5 seconds in the experiment for analysis. […]
# Figure S7. Binding affinities for selected phosphonates by the Stappia stellulata AepX substrate binding protein determined by microscale thermophoresis. […]
# [3] = tested on: Stappia stellulata (DSM 5886); assay: Final growth yield on sole N or P source, DSM 5886; type: cell-based
# Experimental: as §1, §2
# E. coli PhnD = conditions: read-out: Kd (μM) PhnD Ec, cited from earlier work
# [4] = tested on: Thalassobius aestuarii (DSM 15283); assay: Final growth yield on sole N or P source, DSM 15283; type: cell-based
# Experimental: as §1, §2
# [5] = tested on: Pseudomonas putida BIRD-1; assay: Growth of P. putida BIRD-1 on 2AEP; type: cell-based
# Experimental: All strains used in this work were axenic. Pseudomonas strains were maintained on Luria Bertani (LB) agar (1.5% w/v) medium at 30 °C. […] For all growth and proteomics experiments cultures were grown in an adapted minimal A medium[44] using Na-Succinate (20 mM) as the sole carbon source and, where applicable, 10 mM NH4Cl was added as the sole N source. 2AEP and KH2PO4 were added to a final concentration of 100 µM or 1.5 mM as specified in the text and figure legends. Pseudomonas strains were pre-cultured in minimal medium A containing 100 µM Pi and 1.5 mM NH4Cl to ensure adequate growth while minimising the potential for carryover of residual nutrients into experimental cultures. Culture experiments were performed using a FLUOStar Omega 96-well plate reader using Sarstedt 96-well plates incubated at 30°C, shaking at 200 rpm.
Molecule,"Final growth yield (mean OD540 ± standard deviation), sole N source (Shimia marina (DSM26895))","Final growth yield (mean OD540 ± standard deviation), sole P source (Shimia marina (DSM26895))","Final growth yield (mean OD540 ± standard deviation), sole N source [1]","Final growth yield (mean OD540 ± standard deviation), sole P source [1]","Final growth yield (mean OD540 ± standard deviation), sole N source [2]","Final growth yield (mean OD540 ± standard deviation), sole P source [2]",Kd of AepX in words (S. stellulata AepX),Kd (S. stellulata AepX),"Final growth yield (mean OD540 ± standard deviation), sole N source [3]","Final growth yield (mean OD540 ± standard deviation), sole P source [3]",Kd (E. coli PhnD),"Final growth yield (mean OD540 ± standard deviation), sole N source [4]","Final growth yield (mean OD540 ± standard deviation), sole P source [4]","Growth on 2AEP as sole P, sole N or sole N and sole P source [5]","Kd (S. stellulata AepX; microscale thermophoresis, recombinant S. stellulata AepX, 22 °C)","Kd (E. coli PhnD; E. coli PhnD, previous studies)"
"NCCP(=O)(O)O [2-Aminoethylphosphonate, 2-aminoethylphosphonate]",0.347±0.004 OD540,0.827±0.013 OD540,0.535±0.039 OD540,1.050±0.018 OD540,0.239±0.008 OD540,0.748±0.019 OD540,nanomolar range,0.023 ± 0.004 µM,0.816±0.080 OD540,0.980±0.005 OD540,0.05 to 0.1 µM,0.487±0.020 OD540,0.869±0.094 OD540,capable of growth,–,–
NCP(=O)(O)O [Aminomethylphosphonate],–,–,–,–,–,–,–,–,–,–,–,–,–,–,4490 ± 808 µM,16.6 µM
ammonium [NH4],0.397±0.035 OD540,–,0.776±0.044 OD540,–,0.257±0.004 OD540,–,–,–,0.680±0.016 OD540,–,–,–,–,–,–,–
orthophosphate [Pi],–,1.045±0.020 OD540,–,0.90±0.018 OD540,–,1.100±0.037 OD540,–,–,–,1.01±0.07 OD540,–,–,1.003±0.030 OD540,–,–,–
